# Data: PMC9475553, “SHF Acts as a Novel Tumor Suppressor in Glioblastoma Multiforme by Disrupting STAT3 Dimerization” (Advanced Science, 2022)
# No end group written: not given here.
# Biological target: immobilized STAT3 (Homo sapiens, UniProt P40763)
# Assay: Static adsorption equilibrium assay, immobilized STAT3
# Assay type: binding
# Details: immobilized STAT3 85 nmol g^−1 wet gel; peptide 2-20 µM in PBS, stirred 12 h; free peptide by NanoDrop absorbance 240 nm; Langmuir isotherm; mean ± SD; read-out: equilibrium dissociation constant KD
# From the text: Considering that the SH2 domain predominantly represents the inhibition of SHF on STAT3 dimerization and activity, we speculated that this domain may be an optional target for GBM suppression. To this end, we analyzed the mechanical interaction of SHF and STAT3. The structures of human SHF (aa265‐421) and STAT3 (aa130‐715). both of which spanned their respective SH2 domain. were simulated by Swiss‐Model server (https://swissmodel.expasy.org/). To simulate the interaction of SHF and STAT3, Discovery studio 2018 was employed to complete protein‐protein docking using ZDOCK as an initial stage. A rigid body molecular docking algorithm utilizing a fast Fourier transform (FFT) algorithm was used to further improve performance for searching in translational space. All the available structures from PDB were used to calculate the docking poses and the structures obtained were subjected to energy minimization filtration using the smart minimize algorithm (Max steps 200, RMS gradient 0.01). The highest resulting ZDock score was used as the appropriate conformational pose. […] Since these two spots are located closely to one another, the sequence spanning amino acids 388–421 was used as a peptide design master. To obtain a peptide with high internalization efficiency and a strong half‐life, we introduced a palmitic acid at the N‐terminus of the master sequence and amidated the C‐terminus. The designed peptide was named C16. A scrambled peptide containing a scrambled sequence targeting Spot1 was named SC and served as a negative control peptide. […] The static adsorption equilibrium experiment of immobilized STAT3 peptide was used to detect the binding rate of the synthesized peptide with STAT3 (Figure 7C). The concentration of immobilized STAT3 used was 85 nmol g^−1 wet gel. […] Thus, C16 acted as a powerful inhibitor of STAT3 dimerization and associated activity. Next, we determined the implication of C16 in tumor inhibition. […] A concentration of 25 uM was determined to be adequate for use in the subsequent experiments. […] Further, the impact of C16 on tumor propagation was examined in an intracranial xenograft model. U87 cells expressing luciferase were implanted into mouse brains. The mice were injected intraperitoneally (i.p.) with C16 or SC once every 2 days from the third day after cell transplantation. […] To investigate the effect of C16 on cell proliferation, EdU was injected 24 h prior to sacrifice.
# Figure 7 Peptide derived from the STAT3‐binding sites of SHF is an effective GBM suppressive strategy. A) Binding model between SHF and STAT3 using ZDOCK server. […] B) IF staining determined the cell penetrability and nuclear‐localization of C16. U251 cells were incubated with C16 or SC for 2 h and performed IF staining using the indicated antibodies. Bars, 10 µm. C) The statical analysis of adsorption equilibrium assay detecting the binding of C16 and SC with recombinant STAT3. D) Pull‐down assay indicating C16 binds STAT3. GST‐STAT3 was incubated with C16 or SC for 2 h, and the pull‐down assay was performed using Anti‐His magnetic beads. E) IP assay showing the effect of C16 on STAT3 dimerization. 293T cells transfected with indicated vectors were incubated with C16 for 2 h. The relative quantification of STAT3 dimerization was listed. F) IP assay detecting the effect of C16 on the interaction of STAT3 and DNMT1. […] The relative quantification of STAT3/DNMT1 interaction was listed. […] The relative quantification of STAT3/DNMT1 interaction was listed. […]
# immobilized STAT3, sequence (P40763 whole entry): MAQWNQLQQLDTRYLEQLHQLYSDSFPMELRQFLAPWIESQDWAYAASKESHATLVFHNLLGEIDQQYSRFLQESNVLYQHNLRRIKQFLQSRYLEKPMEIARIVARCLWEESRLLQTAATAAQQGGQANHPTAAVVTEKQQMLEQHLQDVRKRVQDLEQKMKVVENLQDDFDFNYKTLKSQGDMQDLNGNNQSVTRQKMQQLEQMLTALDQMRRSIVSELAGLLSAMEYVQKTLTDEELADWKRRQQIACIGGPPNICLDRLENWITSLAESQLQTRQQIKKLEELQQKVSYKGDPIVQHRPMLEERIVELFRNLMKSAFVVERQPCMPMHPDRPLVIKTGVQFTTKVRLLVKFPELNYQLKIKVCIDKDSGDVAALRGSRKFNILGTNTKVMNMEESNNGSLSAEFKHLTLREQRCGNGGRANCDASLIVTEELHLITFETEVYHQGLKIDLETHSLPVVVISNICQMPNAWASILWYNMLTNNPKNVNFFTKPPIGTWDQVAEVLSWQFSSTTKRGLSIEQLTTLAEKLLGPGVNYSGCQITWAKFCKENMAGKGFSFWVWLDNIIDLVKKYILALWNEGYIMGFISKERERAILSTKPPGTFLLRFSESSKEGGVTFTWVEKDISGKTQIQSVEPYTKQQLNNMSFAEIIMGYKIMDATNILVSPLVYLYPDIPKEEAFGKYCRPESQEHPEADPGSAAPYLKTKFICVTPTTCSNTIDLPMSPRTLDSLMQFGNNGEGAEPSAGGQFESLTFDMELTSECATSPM
sequence,measurement,value
"PASSNCEIVPMYHIRKLPIKGAEHMSLLYPVAIR [SC, reference compound]",Kd,4.08 ± 0.63 µM
